Source: patent publication US9309198B2, “N-[3-(2-carboxyethyl)phenyl]piperidin-1-ylacetamide derivatives and use thereof as activators of soluble guanylate cyclase” (Bayer Pharma Aktiengesellschaft, priority 2012, dated 2016)
Structures can show the parent of a compound that is named as a salt.

Key:
[1] = target: T1, recombinant guanylate cyclase reporter cell line (sGC, CHO reporter cell) (Rattus norvegicus, UniProt P20595); assay: Effect on a recombinant guanylate cyclase reporter cell line (CHO reporter cell); assay type: cell-based
T1 construct: expressed in transfected cells; host or cells: CHO reporter cell line
T1 sequence (P20595 1-619): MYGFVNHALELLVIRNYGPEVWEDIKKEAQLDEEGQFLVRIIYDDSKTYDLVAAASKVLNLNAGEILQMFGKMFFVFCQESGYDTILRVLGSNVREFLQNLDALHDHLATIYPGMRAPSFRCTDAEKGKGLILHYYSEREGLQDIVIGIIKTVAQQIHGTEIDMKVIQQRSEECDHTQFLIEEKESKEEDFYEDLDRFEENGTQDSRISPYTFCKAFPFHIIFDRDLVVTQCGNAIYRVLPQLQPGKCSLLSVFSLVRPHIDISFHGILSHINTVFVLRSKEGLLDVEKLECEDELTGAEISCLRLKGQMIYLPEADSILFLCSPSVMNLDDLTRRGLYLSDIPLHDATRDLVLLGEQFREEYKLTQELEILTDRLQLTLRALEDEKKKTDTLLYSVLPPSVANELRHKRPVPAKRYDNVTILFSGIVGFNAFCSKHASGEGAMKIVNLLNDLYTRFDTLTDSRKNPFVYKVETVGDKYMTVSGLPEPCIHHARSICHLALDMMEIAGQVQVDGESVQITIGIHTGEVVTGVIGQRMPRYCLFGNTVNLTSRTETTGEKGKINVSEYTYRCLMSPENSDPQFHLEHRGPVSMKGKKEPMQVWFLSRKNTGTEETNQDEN
T1 sequence (P19686 1-690 partner): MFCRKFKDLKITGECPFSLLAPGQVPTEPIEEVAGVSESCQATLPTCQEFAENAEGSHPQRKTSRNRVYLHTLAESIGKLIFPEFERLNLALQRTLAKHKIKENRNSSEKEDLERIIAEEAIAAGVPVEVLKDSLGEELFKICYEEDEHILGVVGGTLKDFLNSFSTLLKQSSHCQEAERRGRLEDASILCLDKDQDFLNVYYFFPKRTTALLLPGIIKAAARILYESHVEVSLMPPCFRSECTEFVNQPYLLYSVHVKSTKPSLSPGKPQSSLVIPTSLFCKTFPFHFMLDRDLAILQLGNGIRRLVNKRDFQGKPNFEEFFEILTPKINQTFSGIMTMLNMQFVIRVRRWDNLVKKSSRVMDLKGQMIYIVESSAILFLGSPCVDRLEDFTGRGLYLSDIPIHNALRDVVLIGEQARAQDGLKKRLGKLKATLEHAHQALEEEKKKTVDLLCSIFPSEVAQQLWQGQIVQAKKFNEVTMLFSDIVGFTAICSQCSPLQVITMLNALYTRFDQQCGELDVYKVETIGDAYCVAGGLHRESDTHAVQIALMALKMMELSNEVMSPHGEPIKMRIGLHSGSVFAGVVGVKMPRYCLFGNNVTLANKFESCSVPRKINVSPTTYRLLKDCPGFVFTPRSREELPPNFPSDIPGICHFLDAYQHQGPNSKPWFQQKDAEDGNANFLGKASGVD
Experimental: B-2. Effect on a Recombinant Guanylate Cyclase Reporter Cell Line The cellular activity of the compounds according to the invention is determined using a recombinant guanylate cyclase reporter cell line, as described in F. Wunder et al., Anal. Biochem. 339, 104-112 (2005).

[2] = target: T2, soluble guanylate cyclase (sGC) (Rattus norvegicus, UniProt P20595); assay: Stimulation of sGC enzyme activity (PPi detection, luciferase luminescence); assay type: biochemical; conditions: for EC50: read-out: EC50 (half-maximal effective concentration), activating action at the sGC enzyme in vitro
T2 construct: made in house
T2 sequence (P20595 1-619): T1 sequence (P20595 1-619)
T2 sequence (P19686 1-690 partner): T1 sequence (P19686 1-690 partner)
Experimental: B-3. Stimulation of sGC Enzyme Activity
Soluble guanylate cyclase (sGC) converts on stimulation GTP into cGMP and pyrophosphate (PPi). PPi is detected with the aid of the assay described below. The signal produced in the assay increases as the reaction progresses and serves as a measure of the sGC enzyme activity under the given stimulation.
To carry out the assay, 29 μl of enzyme solution [0-10 nM soluble guanylate cyclase (prepared according to Hönicka et al., J. Mol. Med. 77, 14-23 (1999)) in 50 mM TEA, 2 mM MgCl2, 0.1% BSA (fraction V), 0.005% Brij®, pH 7.5] are initially introduced into a microplate, and 1 μl of the substance to be tested (as a serially diluted solution in DMSO) is added. The mixture is incubated at room temperature for 10 min. Then 20 μl of detection mix [1.2 nM Firefly Luciferase (Photinus pyralis luciferase, Promega), 29 μM dehydroluciferin (prepared according to Bitler & McElroy, Arch. Biochem. Biophys. 72, 358 (1957)), 122 μM luciferin (Promega), 153 μM ATP (Sigma) and 0.4 mM DTT (Sigma) in 50 mM TEA, 2 mM MgCl2, 0.1% BSA (fraction V), 0.005% Brij®, pH 7.5] are added. The enzyme reaction is started by adding 20 μl of substrate solution [1.25 mM guanosine 5′-triphosphate (Sigma) in 50 mM TEA, 2 mM MgCl2, 0.1% BSA (fraction V), 0.005% Brij®, pH 7.5] and measured continuously in a luminometer. The extent of the stimulation by the substance to be tested can be determined relative to the signal of the unstimulated reaction.
The activation of haem-free guanylate cyclase is examined by addition of 25 μM of 1H-1,2,4-oxadiazolo[4,3-a]quinoxalin-1-one (ODQ) to the enzyme solution and subsequent incubation for 30 minutes and compared to the stimulation of the native enzyme.

| SMILES | MEC (minimum effective concentration), sGC-activating activity in the CHO reporter cell in vitro [1] | MEC (minimum effective concentration), activating action at the sGC enzyme in vitro [2] | EC50 [2] |
| --- | --- | --- | --- |
| CCC1CCN(C(C(=O)Nc2cc(CC3(C(=O)O)CC3)ccc2F)C(C)C(F)(F)F)CC1 (single isomer, unassigned) [Example 8, 1-(3-{[2-(4-ethylpiperidin-1-yl)-4,4,4-trifluoro-3-methylbutanoyl]amino}-4-fluorobenzyl)cyclopropanecarboxylic acid] | 0.3 nM | 1.2 nM | 0.021 µM |
| CC1CCN([C@@H](C(=O)Nc2cc([C@H](C)CC(=O)O)ccc2Cl)[C@@H](C)C(F)(F)F)CC1 (single isomer, unassigned) [Example 48] | 3 nM | 1.1 nM | 0.033 µM |
| CCC1CCN(C(C(=O)Nc2cc(CCC(=O)O)ccc2Cl)C(C)C(F)(F)F)CC1 (single isomer, unassigned) [Example 11, 3-(4-chloro-3-{[2-(4-ethylpiperidin-1-yl)-4,4,4-trifluoro-3-methylbutanoyl]amino}phenyl)propanoic acid] | 10 nM | 17 nM | 0.39 µM |
| CC1CCN([C@@H](C(=O)Nc2cc(C[C@H](C)C(=O)O)ccc2Cl)[C@@H](C)C(F)(F)F)CC1 [Example 27] | 10 nM | 10.5 nM | 0.21 µM |
| C[C@H]([C@H](C(=O)Nc1cc(C[C@H](C)C(=O)O)ccc1Cl)N1CCC(C(F)(F)F)CC1)C(F)(F)F [Example 34] | 10 nM | 10.5 nM | 0.09 µM |
| CC1CCN(C(C(=O)Nc2cc(CC3(C(=O)O)CC3)ccc2F)C(C)C(F)(F)F)CC1 (single isomer, unassigned; (+)) [Example 36, (+)-1-(4-Fluoro-3-{[4,4,4-trifluoro-3-methyl-2-(4-methylpiperidin-1-yl)butanoyl]amino}benzyl)cyclopropanecarboxylic acid] | 2.3 nM | 3 nM | 0.025 µM |
| C[C@H]([C@H](C(=O)Nc1cc(C[C@H](C)C(=O)O)ccc1Cl)N1CCC2(CC1)CC2)C(F)(F)F (single isomer, unassigned) [Example 46] | 10 nM | 17 nM | 0.21 µM |
| C[C@H]([C@H](C(=O)Nc1cc(CCC(=O)O)ccc1F)N1CCC(C2CC2)CC1)C(F)(F)F [Example 18] | 30 nM | 6.9 nM | 0.54 µM |
| O=C(Nc1cc(CC2(C(=O)O)CC2)ccc1F)C(C1CCCC1)N1CCc2ccccc2C1 (racemic) [Example 53, rac-1-(3-{[Cyclopentyl(3,4-dihydroisoquinolin-2(1H)-yl)acetyl]amino}-4-fluorobenzyl)cyclopropanecarboxylic acid trifluoroacetate] | 100 nM | 160 nM | 0.84 µM |
| CC1CCN([C@@H](C(=O)Nc2cc(CC3(C(=O)O)CC3)ccc2Cl)[C@@H](C)C(F)(F)F)CC1 [Example 51, 1-(4-Chloro-3-{[(2R,3R)-4,4,4-trifluoro-3-methyl-2-(4-methylpiperidin-1-yl)butanoyl]amino}benzyl)cyclopropanecarboxylic acid] | 1 nM | 1.2 nM | – |
| C[C@H](CC(=O)O)c1ccc(Cl)c(NC(=O)[C@@H]([C@@H](C)C(F)(F)F)N2CCC3(CC2)CC3)c1 (single isomer, unassigned) [Example 47] | 1 nM | 3.9 nM | 0.081 µM |
| CCC1CCN([C@@H](C(=O)Nc2cc(CC3(C(=O)O)CC3)ccc2Cl)[C@@H](C)C(F)(F)F)CC1 [Example 26, 1-(4-Chloro-3-{[(2R,3R)-2-(4-ethylpiperidin-1-yl)-4,4,4-trifluoro-3-methylbutanoyl]amino}benzyl)cyclopropanecarboxylic acid] | 1 nM | 0.8 nM | 0.01 µM |
| CC1CCN(C(C(=O)Nc2cc(CCC(=O)O)ccc2F)C(C)C(F)(F)F)CC1.O=C(O)C(F)(F)F (single isomer, unassigned; (+)) [Example 37, (+)-3-(4-Fluoro-3-{[4,4,4-trifluoro-3-methyl-2-(4-methylpiperidin-1-yl)butanoyl]amino}phenyl)propanoic acid trifluoroacetate] | 200 nM | – | – |
| C[C@H]([C@H](C(=O)Nc1cc(CCC(=O)O)ccc1Cl)N1CCC(C(F)(F)F)CC1)C(F)(F)F [Example 17] | 3 nM | – | – |
| CC(C(C(=O)Nc1cc(CC2(C(=O)O)CC2)ccc1F)N1CCCCC1)C(F)(F)F (stereo not shown) [Example 3] | 60 nM | – | – |
| CCC1CCN([C@@H](C(=O)Nc2cc(CC3(C(=O)O)CC3)ccc2F)[C@@H](C)C(F)(F)F)CC1 (single isomer, unassigned) [Example 39] | 0.3 nM | 1.1 nM | 0.0079 µM |
| C[C@H]([C@H](C(=O)Nc1cc([C@@H](C)CC(=O)O)ccc1Cl)N1CCC(C(F)(F)F)CC1)C(F)(F)F [Example 23] | 3 nM | – | – |
| C[C@H]([C@H](C(=O)Nc1cc(CCC(=O)O)ccc1Cl)N1CCC2(CC1)CC2)C(F)(F)F [Example 19] | 3 nM | – | – |
